Measured values taken from patent US20100298434A1, “NEUROPROTECTION AND PREVENTION OF DOPAMINERGIC CELL DEATH BY TARGETING NUR77 TRANSLOCATION” (priority 2009, published 2010).

How the values were obtained:
[1] = test system: substantia nigra neurons; assay: 6-hydroxydopamine lesions in rats, Fluoro-Jade B staining of degenerating neurons; assay type: in vivo; conditions: intracerebral 6-OHDA
Experimental: (§1) Fifteen male Sprague—Dawley albino rats (Charles River, Montreal, Canada) weighing 250-275 g at the beginning of the experiment were used in this study. They were housed two per cage in a temperature-controlled environment maintained under a 12-h light/dark cycle with ad libitum access to food and water. Handling of the rats was performed in accordance with the Canadian Guide for the Care and Use of Laboratory animals and all procedures were approved by the Institutional Animal Care Committee of Laval University. All efforts were made to minimize the number of animals used and their suffering. Rats were anaesthetized in an induction chamber with 4% isoflurane in 95% O2/5% CO2 before being transferred to a stereotaxic frame and maintained at 1.5-3% isoflurane. A sagittal cut exposed bregma and a hole was drilled.
The brain sections were mounted on gelatin-coated slides (Brain Research Laboratories, Newton, Mass.) and air-dried overnight. They were dehydrated in ascending grades of ethanol, hydrated in descending grades of ethanol and finally rinsed in milliQ water. Afterwards, the sections were dipped in a 0.06% potassium permanganate solution bath for 10 min and washed in milliQ water. […] Degenerating neurons and fibers appeared green and nuclei emerged blue in fluorescence.

[2] = test system: Nur77 mRNA; assay: 6-hydroxydopamine lesions in rats, Nur77 mRNA in situ hybridization in substantia nigra; assay type: in vivo; conditions: intracerebral 6-OHDA 12 μg/3 μl
Experimental: as §1
Cryostat-cut brain sections (12 μm) were mounted on Superfrost slides (Fisher Scientific, Toronto, ON, Canada) and stored at −80° C. Specific [^35S]UTP-labeled complementary.
RNA (cRNA) probes were used and preparation of the Nur77 probe was performed as described previously (Beaudry et al., 2000). The antisense cRNA probe for Nur77 stems from a 2.4-kb EcoRI fragment of a full-length rat Nur77 cDNA subcloned into pBluescript SK-1 and linearized with BamHI. […]

[3] = test system: Nur77; assay: Nur77 subcellular distribution (nuclei-cytoplasmic fractioning, Western blot) in PC12 cells; assay type: cell-based, rat
Experimental: (§2) PC12 cells were obtained from ATCC CRL 1721 (VA, USA) and were grown in phenol red-free RPMI 1640 medium supplemented with 5% fetal calf serum (FCS), 10% horse serum and gentamicin (50 μg/ml). They were cultured on Primaria 6-well plates (BD Falcon, Ontario, Canada) for RT-PCR experiments and immunoblotting; on Primaria 96-wells plates for LDH cytoxicity experiments and finally on poly-L-lysine-coated circular glass coverslips for immunocytofluorescence assays. Cells were fed fresh medium every 3 days and maintained at 37° C. in a humidified 5% CO2 atmosphere. […] Control conditions were without toxin. […] For the present study, kinetic time periods were: 0 h, 3 h, 6 h, 9 h, 12 h and 24 h. After each experiment, culture medium was harvested for cytotoxicity detection and cells were collected for RT-PCR and ICF/Fractioning (Gelinas & Martinoli 2002; Gagne et al. 2003; Gelinas et al. 2004; Chiasson et al. 2006).
PC12 cells were grown and treated in 6-wells plates. We used a nuclear extraction kit (Active Motif, Carlsbad, Calif.) to separate cytoplasmic protein content from nuclear protein content. Briefly, cells were washed in wells with a mixture of PBS and phosphatase inhibitors, and then harvested in centrifuge tubes. Hypotonic buffer swelled cytoplasmic membrane, which an afterward mild detergent ruptured.
Centrifugation at 14,000×g pelleted the intact nuclei, and soluble material was preserved as the cytoplasmic fraction. Nuclei were the lysed with the provided lysis buffer. Protein dosage was performed with a bicinchoninic acid (BCA)-based SDS-compatible Protein Assay Kit (Pierce, Rockfort, Ill.) on each fraction of each sample.
Equal amounts of nuclei or cytoplasmic protein fractions were loaded onto a 10% polyacrylamide-SDS gel. After electrophoretic separation (180 volts, 45 min.) the polyacrylamide gels were transferred onto […] (PVDF) membranes (0.22 μm pore size, Bio-Rad) at 50 V for 2 h. The membranes were blocked with 5% non-fat powder milk for 1 h. […] Quantitative analysis was performed with the Fluor Chem SP software.

[4] = test system: PC12 cells; assay: LDH cytotoxicity in PC12 cells; assay type: cell-based
Experimental: They were cultured on Primaria 6-well plates (BD Falcon, Ontario, Canada) for RT-PCR experiments and immunoblotting; on Primaria 96-wells plates for LDH cytoxicity experiments and finally on poly-L-lysine-coated circular glass coverslips for immunocytofluorescence assays. Cells were fed fresh medium every 3 days and maintained at 37° C. in a humidified 5% CO2 atmosphere. […] Control conditions were without toxin.
Briefly, media were collected and centrifuged at 800×g at 4° C. for 2 min. The cell-free supernatant (100 μl) was then used to determine LDH activity by measuring the absorbance at a wavelength of 490 nm (A490) on a microplate reader (Multiscan Ascent Microplate reader, Thermolab System, Franklin Mass.) according to the working procedures of Roche's protocol. Total cellular LDH was determined by lysing cells with 1% Triton X-100.

[5] = test system: PC12 cells; assay: TUNEL/DAPI apoptosis in PC12 cells; assay type: cell-based, rat; conditions: 6-OHDA, at 12 and 24 h
Experimental: as §2
PC12 cells were grown and treated on circular glass coverslips, then fixed in 4% paraformaldehyde for 1 hour at 4° C. […] Images were acquired with an Olympus IX-70 inverted microscope with a high-pressure mercury burner and necessary filter cubes (Olympus U-MNUV, U-MNIBA and U-MWIG), and were analyzed with Bio-Rad's QuantityOne software. […]

[6] = test system: nigral TH neurons; assay: MPTP lesions in mice, stereological counts of TH-immunoreactive neurons; assay type: in vivo; conditions: Nur77 (+/+) mice, 7 i.p. injections MPTP-HCl 20 mg/kg, 14 days after last injection
Excerpt: Wild-type (Nur77(+/+)) male (C57BL/6, weighing 20-25 g) mice were purchased from Charles River, Canada. Nur77 knockout (Nur77(−/−)) mice were developed and graciously provided by Dr Jeff Milbrandt at the Washington University, St. Louis, Mo., USA (Lee et al., 1995). These mice are healthy and reproduce normally (Crawford et al., 1995; Lee et al., 1995). They were produced in a mixed background and have been backcrossed into the C57BL/6 strain for at least ten generations to reduce genetic background heterogeneity (Jeff Milbrandt, personal communication). We maintain a Nur77(−/−) mouse colony at the animal care facility of our research center. Young adult Nur77(−/−) male mice weighing 20-25 g were used for present experiments. All mice were housed three or four per cage in a temperature-controlled environment and maintained under a 12-h light-dark cycle with ad libitum access to food and water.
In total, 17 mice (8 Nur77 (+/+) and 9 Nur77 (−/−)) received seven intraperitoneal (i.p.) injections of MPTP-HCl (20 mg/kg free base; Sigma, St. Louis, Mo.) dissolved in NaCl 0.9%. MPTP was administered twice on the first 2 days of the experimental protocol at an interval of 12 h and once a day on 3 subsequent days (Tremblay et al. 2006; Gibrat et al., 2010). […]
The loss of DA neurons was determined by counting TH-immunoreactive cells under bright-field illumination. […]

## NCCc1cc(O)c(O)cc1O [6-OHDA, 6-hydroxydopamine]
[1]
  time at which Fluoro-Jade staining is also observed: 3 h
  time of maximal Fluoro-Jade staining: 48 h
[2]
  earliest time of Nur77 mRNA induction in midbrain dopaminergic neurons: 3 h
[3]; 6-OHDA 30 μM
  start of Nur77 upregulation and translocation from the nucleus to the cytosol: 9 h
[4]; PC12 cells, 10 μM 6-OHDA
  start of significant rise of cellular death (LDH activity): 12 h
[4]; PC12 cells, 6-OHDA 30 μM, after 24 h
  cell death: ≤ 70%
[5]
  cells showing signs of apoptosis (co-localization of DAPI and TUNEL): more than 90%

## CC/C=C\C/C=C\C/C=C\C/C=C\C/C=C\C/C=C\CCC(=O)O [DHA, docosahexaenoic acid]
[4]; PC12 cells, 6-OHDA 30 μM, co-incubation with DHA 10^−6 M
  cytotoxicity induced by 6-OHDA: significantly reduced
[4]; PC12 cells, MPP+ 5 mM, co-incubation with DHA 10^−6 M
  cytotoxicity induced by MPP+: significantly reduced

## CCC(=C/[C@H](C)C/C=C/C(C)=C/[C@@H](C)C(=O)[C@@H](C)[C@H](O)[C@@H](C)C/C(C)=C/C(=O)O)/C=C/[C@@H]1OC(=O)C=C[C@@H]1C [LMB, leptomycin B]
[3]; 6-OHDA 30 μM, co-incubation with LMB 1 nM
  6-OHDA-induced translocation of Nur77 from the nucleus to the cytosol: blocked
[4]; LMB alone
  PC12 cell survival: no effect
[4]; PC12 cells, co-incubation of LMB with 6-OHDA, 24 h
  6-OHDA induced cell death: significant reduction

## C[n+]1ccc(-c2ccccc2)cc1 [MPP+, 1-methyl-4-phenylpyridinium ion]
[3]; MPP+ 5 mM
  beginning of Nur77 protein translocation from the nucleus to the cytosol: 6 h

## CN1CC=C(c2ccccc2)CC1 [MPTP, 1-methyl-4-phenyl-1,2,3,6-tetrahydropyridine]
[6]
  number of nigral TH neurons: significantly reduced
